{"source": "ChEMBL document CHEMBL3217742", "about": "“Mapping of a lipoglycopeptide antibiotic binding site on Staphylococcus aureus penicillin-binding protein 2 using a vancomycin photoaffinity analogue” (2012)", "key": {"Staphylococcus aureus [1]": {"tested_on": "Staphylococcus aureus", "test": "Antibacterial activity against vancomycin A-resistant Staphylococcus aureus VRS2", "format": "functional"}, "Enterococcus faecium [2]": {"tested_on": "Enterococcus faecium", "test": "Antibacterial activity against vancomycin A-resistant Enterococcus faecium SR7940", "format": "functional"}, "Enterococcus faecium [3]": {"tested_on": "Enterococcus faecium", "test": "Antibacterial activity against vancomycin B-resistant Enterococcus faecium SR23598", "format": "functional"}, "Staphylococcus aureus [4]": {"tested_on": "Staphylococcus aureus", "test": "Antibacterial activity against vancomycin-susceptible Staphylococcus aureus RN4220", "format": "functional"}, "Enterococcus faecium [5]": {"tested_on": "Enterococcus faecium", "test": "Antibacterial activity against vancomycin-susceptible Enterococcus faecium SR16972", "format": "functional"}, "[6]": {"tested_on": "Staphylococcus aureus subsp. aureus RN4220", "test": "Displacement of photoaffinity probe 1 from penicillin-binding protein-2 in Staphylococcus aureus RN4220 cell membrane incubated for 5 mins prior to photoaffinity probe 1 challenge for 5 mins measured after UV irradiation by SDS-PAGE based western blot analysis"}, "[7]": {"tested_on": "Staphylococcus aureus subsp. aureus RN4220", "test": "Binding affinity to penicillin-binding protein-2 in Staphylococcus aureus RN4220 cell membrane at 50 uM incubated for 20 mins measured after UV irradiation by SDS-PAGE based immunostaining"}, "[8]": {"tested_on": "Staphylococcus aureus subsp. aureus RN4220", "test": "Binding affinity to penicillin-binding protein-2 transpeptidase domain in Staphylococcus aureus RN4220 cell membrane at 1 uM incubated for 1 hr measured after UV irradiation by pull-down assay"}, "[9]": {"tested_on": "Staphylococcus aureus subsp. aureus RN4220", "test": "Binding affinity to Staphylococcus aureus RN4220 recombinant C-terminal His6-tagged PBP2 expressed in Escherichia coli cells at 2 uM incubated for 2 hrs measured after UV irradiation by LC-MALDI-MS/MS analysis"}}, "note": "Active and inactive are the calls of the source. The calls are words filed in the database; no cut-off is given here.", "data": [{"smiles": "CN[C@H](CC(C)C)C(=O)N[C@H]1C(=O)N[C@@H](CC(N)=O)C(=O)N[C@H]2C(=O)N[C@H]3C(=O)N[C@H](C(=O)N[C@H](C(=O)O)c4cc(O)cc(O)c4-c4cc3ccc4O)[C@H](O)c3ccc(c(Cl)c3)Oc3cc2cc(c3O[C@@H]2O[C@H](CO)[C@@H](O)[C@H](O)[C@H]2O[C@H]2C[C@](C)(N)[C@H](O)[C@H](C)O2)Oc2ccc(cc2Cl)[C@H]1O", "note": "[VANCOMYCIN]", "values": [{"measurement": "MIC", "setting": "Staphylococcus aureus [1]", "value": "> 64", "unit": "mg/L"}, {"measurement": "MIC", "setting": "Enterococcus faecium [2]", "value": "> 64", "unit": "mg/L"}, {"measurement": "MIC", "setting": "Enterococcus faecium [3]", "value": "> 64", "unit": "mg/L"}]}, {"smiles": "CN[C@H](CC(C)C)C(=O)N[C@H]1C(=O)N[C@@H](CC(N)=O)C(=O)N[C@H]2C(=O)N[C@H]3C(=O)N[C@H](C(=O)N[C@H](C(=O)O)c4cc(O)cc(O)c4-c4cc3ccc4O)[C@H](O)c3ccc(c(Cl)c3)Oc3cc2cc(c3O[C@@H]2O[C@H](CO)[C@@H](O)[C@H](O)[C@H]2O[C@H]2C[C@](C)(NCc3cccc(NC(=O)c4ccc(C)c(OCc5ccccc5)c4[N+](=O)[O-])c3)[C@H](O)[C@H](C)O2)Oc2ccc(cc2Cl)[C@H]1O", "values": [{"measurement": "MIC", "setting": "Staphylococcus aureus [4]", "value": 0.125, "unit": "mg/L"}, {"measurement": "MIC", "setting": "Enterococcus faecium [5]", "value": 0.25, "unit": "mg/L"}, {"measurement": "MIC", "setting": "Staphylococcus aureus [1]", "value": 0.5, "unit": "mg/L"}, {"measurement": "MIC", "setting": "Enterococcus faecium [2]", "value": 1, "unit": "mg/L"}, {"measurement": "MIC", "setting": "Enterococcus faecium [3]", "value": 0.25, "unit": "mg/L"}, {"measurement": "inhibition", "setting": "[6]", "value": "Dose-dependent effect"}]}, {"smiles": "CN[C@H](CC(C)C)C(=O)N[C@H]1C(=O)N[C@@H](CC(N)=O)C(=O)N[C@H]2C(=O)N[C@H]3C(=O)N[C@H](C(=O)N[C@H](C(=O)NCCCOCCOCCOCCCNC(=O)CCCC[C@@H]4SC[C@@H]5NC(=O)N[C@@H]54)c4cc(O)cc(O)c4-c4cc3ccc4O)[C@H](O)c3ccc(c(Cl)c3)Oc3cc2cc(c3O[C@@H]2O[C@H](CO)[C@@H](O)[C@H](O)[C@H]2O[C@H]2C[C@](C)(NCc3ccc(NC(=O)c4ccc(C5(C(F)(F)F)N=N5)cc4)nc3)[C@H](O)[C@H](C)O2)Oc2ccc(cc2Cl)[C@H]1O", "values": [{"measurement": "MIC", "setting": "Staphylococcus aureus [4]", "value": 1, "unit": "mg/L"}, {"measurement": "MIC", "setting": "Enterococcus faecium [5]", "value": 0.5, "unit": "mg/L"}, {"measurement": "MIC", "setting": "Staphylococcus aureus [1]", "value": 2, "unit": "mg/L"}, {"measurement": "MIC", "setting": "Enterococcus faecium [2]", "value": 2, "unit": "mg/L"}, {"measurement": "MIC", "setting": "Enterococcus faecium [3]", "value": 0.5, "unit": "mg/L"}, {"measurement": "Activity", "setting": "[7]", "value": "Active"}, {"measurement": "Activity", "setting": "[8]", "value": "Active"}, {"measurement": "Activity", "setting": "[9]", "value": "Active"}]}]}
